The source of these data is article PMC5218480 (PLoS ONE, 2017).

Structures are written as SMILES.

This experiment concerns MV-4-11 cells. The experiment is described as follows: Gene expression microarray analysis (Affymetrix PrimeView) and GSEA. The class given is cell-based, human. Also on record: RFU PODN (11730768_x_at) / Fold change /veh PODN (11730768_x_at) / RFU LINC00158 (11744669_a_at) / Fold change /veh LINC00158 (11744669_a_at) / RFU DUSP10 (11751237_a_at) / Fold change /veh DUSP10 (11751237_a_at) / RFU ID3 (11757404_x_at) / Fold change /veh ID3 (11757404_x_at) / RFU PLEKHG5 (11737974_s_at) / Fold change /veh PLEKHG5 (11737974_s_at) / RFU LRRC4B (11730491_at) / Fold change /veh LRRC4B (11730491_at) / RFU GIMAP4 (11747438_a_at) / Fold change /veh GIMAP4 (11747438_a_at) / RFU KRT8 (11758183_x_at) / Fold change /veh KRT8 (11758183_x_at) / RFU CNN1 (11734310_a_at) / Fold change /veh CNN1 (11734310_a_at) / RFU VPS37D (11726825_at) / Fold change /veh VPS37D (11726825_at) / RFU C10orf10 (11716522_x_at) / Fold change /veh C10orf10 (11716522_x_at) / RFU KIR2DL2 /// KIR2DL4 /// KIR2DL5A /// KIR2DL5B /// KIR2DS1 /// KIR2DS2 /// KIR2DS3 /// KIR2DS4 /// KIR3DL3 /// KIR3DL3 /// KIR3DS1 (11738374_at) / Fold change /veh KIR2DL2 /// KIR2DL4 /// KIR2DL5A /// KIR2DL5B /// KIR2DS1 /// KIR2DS2 /// KIR2DS3 /// KIR2DS4 /// KIR3DL3 /// KIR3DL3 /// KIR3DS1 (11738374_at) / RFU C1QL1 (11718748_at) / Fold change /veh C1QL1 (11718748_at) / RFU TMPRSS4 (11747572_a_at) / Fold change /veh TMPRSS4 (11747572_a_at) / RFU HAMP (11756126_x_at) / Fold change /veh HAMP (11756126_x_at) / RFU RNFT2 (11725882_a_at) / Fold change /veh RNFT2 (11725882_a_at) / RFU NR4A2 (11747474_a_at) / Fold change /veh NR4A2 (11747474_a_at) / RFU ABCC12 (11746883_a_at) / Fold change /veh ABCC12 (11746883_a_at) / RFU TMEM136 (11760407_x_at) / Fold change /veh TMEM136 (11760407_x_at) / RFU CLDN22 /// WWC2 (11732394_at) / Fold change /veh CLDN22 /// WWC2 (11732394_at) / RFU HLA-DPB1 (11760878_x_at) / Fold change /veh HLA-DPB1 (11760878_x_at) / RFU SPINT1 (11716480_a_at) / Fold change /veh SPINT1 (11716480_a_at) / RFU GAP43 (11754022_s_at) / Fold change /veh GAP43 (11754022_s_at) / RFU A4GNT (11735810_at) / Fold change /veh A4GNT (11735810_at) / RFU PRB3 (11715151_x_at) / Fold change /veh PRB3 (11715151_x_at) / RFU TUBB4B (11761932_at) / Fold change /veh TUBB4B (11761932_at) / RFU CAPN14 (11732068_a_at) / Fold change /veh CAPN14 (11732068_a_at) / RFU TMCC2 (11721928_a_at) / Fold change /veh TMCC2 (11721928_a_at) / RFU IRGQ (11745062_a_at) / Fold change /veh IRGQ (11745062_a_at) / RFU FAM174B (11720279_a_at) / Fold change /veh FAM174B (11720279_a_at) / RFU TMPRSS4 (11748680_a_at) / Fold change /veh TMPRSS4 (11748680_a_at) / RFU FAM212B (11763350_a_at) / Fold change /veh FAM212B (11763350_a_at) / RFU PLEKHG5 (11743358_a_at) / Fold change /veh PLEKHG5 (11743358_a_at) / RFU ZSCAN30 (11745921_a_at) / Fold change /veh ZSCAN30 (11745921_a_at) / RFU CMKLR1 (11741424_a_at) / Fold change /veh CMKLR1 (11741424_a_at) / RFU LOC101060620 /// MAPK8IP1 (11723275_at) / Fold change /veh LOC101060620 /// MAPK8IP1 (11723275_at) / RFU SPTSSB (11747773_x_at) / Fold change /veh SPTSSB (11747773_x_at) / RFU PRSS12 (11739890_at) / Fold change /veh PRSS12 (11739890_at) / RFU BIN1 (11741810_x_at) / Fold change /veh BIN1 (11741810_x_at) / RFU WNT11 (11732464_a_at) / Fold change /veh WNT11 (11732464_a_at) / RFU C10orf10 (11716521_a_at) / Fold change /veh C10orf10 (11716521_a_at) / RFU C5orf56 (11738089_at) / Fold change /veh C5orf56 (11738089_at) / RFU CYB561 (11721691_x_at) / Fold change /veh CYB561 (11721691_x_at) / RFU ANKRD19P (11752326_a_at) / Fold change /veh ANKRD19P (11752326_a_at) / RFU OR2T12 /// OR2T33 /// OR2T8 (11738714_s_at) / Fold change /veh OR2T12 /// OR2T33 /// OR2T8 (11738714_s_at) / RFU VCAN (11748164_a_at) / Fold change /veh VCAN (11748164_a_at) / RFU JSRP1 (11732532_at) / Fold change /veh JSRP1 (11732532_at) / RFU KRTAP10-11 (11738290_x_at) / Fold change /veh KRTAP10-11 (11738290_x_at) / RFU MYO3A (11730013_a_at) / Fold change /veh MYO3A (11730013_a_at) / RFU EBF3 (11725865_a_at) / Fold change /veh EBF3 (11725865_a_at) / RFU CAMK2N1 (11719241_x_at) / Fold change /veh CAMK2N1 (11719241_x_at) / RFU C5orf56 (11738088_a_at) / Fold change /veh C5orf56 (11738088_a_at) / RFU OLFML3 (11715873_a_at) / Fold change /veh OLFML3 (11715873_a_at) / RFU LOC100653217 /// NTM (11731650_a_at) / Fold change /veh LOC100653217 /// NTM (11731650_a_at) / RFU MAPK11 (11762145_a_at) / Fold change /veh MAPK11 (11762145_a_at) / RFU FIZ1 (11724087_x_at) / Fold change /veh FIZ1 (11724087_x_at) / RFU OASL (11726364_x_at) / Fold change /veh OASL (11726364_x_at) / RFU SOX15 (11748057_x_at) / Fold change /veh SOX15 (11748057_x_at) / RFU CD79A (11719716_a_at) / Fold change /veh CD79A (11719716_a_at) / RFU HIST1H1D (11736915_at) / Fold change /veh HIST1H1D (11736915_at) / RFU CASKIN2 (11723855_a_at) / Fold change /veh CASKIN2 (11723855_a_at) / RFU LOC730098 (11760151_x_at) / Fold change /veh LOC730098 (11760151_x_at) / RFU OR4N2 (11742367_at) / Fold change /veh OR4N2 (11742367_at) / RFU PRRT2 (11749266_a_at) / Fold change /veh PRRT2 (11749266_a_at) / RFU SNX32 (11753110_a_at) / Fold change /veh SNX32 (11753110_a_at) / RFU CDHR5 (11726645_a_at) / Fold change /veh CDHR5 (11726645_a_at) / RFU RCAN1 (11760418_a_at) / Fold change /veh RCAN1 (11760418_a_at) / RFU FAM167A (11723789_a_at) / Fold change /veh FAM167A (11723789_a_at) / RFU FAM26E (11764081_at) / Fold change /veh FAM26E (11764081_at) / RFU ISYNA1 (11749810_s_at) / Fold change /veh ISYNA1 (11749810_s_at) / RFU ACY1 (11761880_at) / Fold change /veh ACY1 (11761880_at) / RFU 11764098_at / Fold change /veh 11764098_at / RFU SAMD14 (11745864_x_at) / Fold change /veh SAMD14 (11745864_x_at) / RFU NPB (11741838_a_at) / Fold change /veh NPB (11741838_a_at) / RFU TMPRSS6 (11731388_a_at) / Fold change /veh TMPRSS6 (11731388_a_at) / RFU KRTAP10-2 (11738614_at) / Fold change /veh KRTAP10-2 (11738614_at) / RFU ARHGAP8 /// PRR5-ARHGAP8 (11727945_x_at) / Fold change /veh ARHGAP8 /// PRR5-ARHGAP8 (11727945_x_at) / RFU KRTAP5-7 /// NADSYN1 (11734609_at) / Fold change /veh KRTAP5-7 /// NADSYN1 (11734609_at) / RFU RASL12 (11751679_a_at) / Fold change /veh RASL12 (11751679_a_at) / RFU CDKN2B (11736163_a_at) / Fold change /veh CDKN2B (11736163_a_at) / RFU PRF1 (11729649_at) / Fold change /veh PRF1 (11729649_at) / RFU, ZNF638 /// ZNF638-IT1 / Fold change vs veh, ZNF638 /// ZNF638-IT1 / RFU, PANK3 / Fold change vs veh, PANK3 / RFU, SH3YL1 / Fold change vs veh, SH3YL1 / RFU, ZEB2 / Fold change vs veh, ZEB2 / RFU, NRIP1 / Fold change vs veh, NRIP1 / RFU, PTTG1IP / Fold change vs veh, PTTG1IP / RFU, CAPN2 / Fold change vs veh, CAPN2 / RFU, MED14 / Fold change vs veh, MED14 / RFU, SNORA58 / Fold change vs veh, SNORA58 / RFU, C1orf63 / Fold change vs veh, C1orf63 / RFU, LRRFIP1 / Fold change vs veh, LRRFIP1 / RFU, NDUFAF7 / Fold change vs veh, NDUFAF7 / RFU, SLC12A2 / Fold change vs veh, SLC12A2 / RFU, IBTK / Fold change vs veh, IBTK / RFU, ESF1 / Fold change vs veh, ESF1 / Fold change vs veh, TMEM50B / RFU, TAOK1 / Fold change vs veh, TAOK1 / RFU, ACBD3 / Fold change vs veh, ACBD3 / RFU, TMA16 / Fold change vs veh, TMA16 / RFU, RWDD3 / Fold change vs veh, RWDD3 / RFU, BCAT1 / Fold change vs veh, BCAT1 / RFU, EDEM3 / Fold change vs veh, EDEM3 / RFU, TMEM33 / Fold change vs veh, TMEM33 / RFU, WDR75 / Fold change vs veh, WDR75 / RFU, AHCTF1 / Fold change vs veh, AHCTF1 / RFU, TFRC / Fold change vs veh, TFRC / RFU, ZDHHC17 / Fold change vs veh, ZDHHC17 / RFU, NOM1 / Fold change vs veh, NOM1 / RFU, ARL8B / Fold change vs veh, ARL8B / RFU, ZBTB11 / Fold change vs veh, ZBTB11 / RFU, TAMM41 / Fold change vs veh, TAMM41 / RFU, KIAA1704 /// LOC100996395 / Fold change vs veh, KIAA1704 /// LOC100996395 / RFU, ING1 / Fold change vs veh, ING1 / RFU, TRMT61B / Fold change vs veh, TRMT61B / RFU, FUBP3 / Fold change vs veh, FUBP3 / RFU, TP53 / Fold change vs veh, TP53 / RFU, TNKS2 / Fold change vs veh, TNKS2 / RFU, ZFP14 / Fold change vs veh, ZFP14 / RFU, ACTR2 / Fold change vs veh, ACTR2 / RFU, PPP3R1 / Fold change vs veh, PPP3R1 / RFU, PIK3R1 / Fold change vs veh, PIK3R1 / RFU, HNRNPA1 / Fold change vs veh, HNRNPA1 / RFU, RNF170 / Fold change vs veh, RNF170 / RFU, ZNF28 / Fold change vs veh, ZNF28 / RFU, RNGTT / Fold change vs veh, RNGTT / RFU, OGT / Fold change vs veh, OGT / RFU, BRD1 / Fold change vs veh, BRD1 / RFU, MARS / Fold change vs veh, MARS / RFU, ZNF655 / Fold change vs veh, ZNF655 / RFU, FAHD1 / Fold change vs veh, FAHD1 / RFU, BDP1 / Fold change vs veh, BDP1 / RFU, LRRCC1 / Fold change vs veh, LRRCC1 / RFU, ARID1A / Fold change vs veh, ARID1A / RFU, ZNF146 / Fold change vs veh, ZNF146 / RFU, ZNF330 / Fold change vs veh, ZNF330 / RFU, GPN3 / Fold change vs veh, GPN3 / RFU, C9orf123 / Fold change vs veh, C9orf123 / RFU, N4BP2L2 / Fold change vs veh, N4BP2L2 / RFU, ARFIP1 / Fold change vs veh, ARFIP1 / RFU, FAM179B / Fold change vs veh, FAM179B / RFU, BCL10 / Fold change vs veh, BCL10 / RFU, UHRF1BP1L / Fold change vs veh, UHRF1BP1L / RFU, BET1 / Fold change vs veh, BET1 / RFU, CNOT2 / Fold change vs veh, CNOT2 / RFU, ZNF268 / Fold change vs veh, ZNF268 / Fold change vs veh, ZNF507 / RFU, DGCR2 / Fold change vs veh, DGCR2 / RFU, WDSUB1 / Fold change vs veh, WDSUB1 / Fold change vs veh, HSP90B1 /// MIR3652 / RFU, ADSS / Fold change vs veh, ADSS / RFU, GK / Fold change vs veh, GK / RFU, ZNF148 / Fold change vs veh, ZNF148 / RFU, TAF9 / Fold change vs veh, TAF9 / RFU, SLC1A5 / Fold change vs veh, SLC1A5 / RFU, SLMO2 / Fold change vs veh, SLMO2 / RFU, ABCC4 / Fold change vs veh, ABCC4 / RFU, LOC101060439 /// RAP1B / Fold change vs veh, LOC101060439 /// RAP1B / RFU, RFX7 / Fold change vs veh, RFX7 / RFU, GTPBP10 / Fold change vs veh, GTPBP10 / RFU, CNEP1R1 / Fold change vs veh, CNEP1R1 / RFU, BIVM-ERCC5 /// ERCC5 / Fold change vs veh, BIVM-ERCC5 /// ERCC5 / RFU, ILF3 / Fold change vs veh, ILF3 / RFU 11762660_at / Fold change /veh 11762660_at / RFU VCAN (11757783_s_at) / Fold change /veh VCAN (11757783_s_at) / RFU DDX43 (11728927_at) / Fold change /veh DDX43 (11728927_at) / RFU KRT8 (11758188_x_at) / Fold change /veh KRT8 (11758188_x_at) / RFU NKD1 (11759106_at) / Fold change /veh NKD1 (11759106_at) / RFU SRD5A1 (11742802_a_at) / Fold change /veh SRD5A1 (11742802_a_at) / RFU TPSAB1 /// TPSB2 (11721975_s_at) / Fold change /veh TPSAB1 /// TPSB2 (11721975_s_at) / RFU GSTM3 (11746129_a_at) / Fold change /veh GSTM3 (11746129_a_at) / RFU IL23R (11737362_x_at) / Fold change /veh IL23R (11737362_x_at) / RFU TMEM51 (11727254_a_at) / Fold change /veh TMEM51 (11727254_a_at) / RFU PIWIL2 (11732686_x_at) / Fold change /veh PIWIL2 (11732686_x_at) / RFU ORM1 (11744905_x_at) / Fold change /veh ORM1 (11744905_x_at) / RFU CCDC152 (11743942_at) / Fold change /veh CCDC152 (11743942_at) / RFU ECM1 (11717891_a_at) / Fold change /veh ECM1 (11717891_a_at) / RFU IL23R (11748794_a_at) / Fold change /veh IL23R (11748794_a_at) / RFU TNFAIP8L3 (11732012_x_at) / Fold change /veh TNFAIP8L3 (11732012_x_at) / RFU MBOAT4 (11741988_at) / Fold change /veh MBOAT4 (11741988_at) / RFU 11764193_at / Fold change /veh 11764193_at / RFU TMEM53 (11763286_at) / Fold change /veh TMEM53 (11763286_at) / RFU MAGEB2 (11727129_at) / Fold change /veh MAGEB2 (11727129_at) / RFU TMEM200A (11744735_a_at) / Fold change /veh TMEM200A (11744735_a_at) / RFU CCDC152 (11751479_a_at) / Fold change /veh CCDC152 (11751479_a_at) / RFU FAM211A (11726209_a_at) / Fold change /veh FAM211A (11726209_a_at) / RFU RGS16 (11746705_a_at) / Fold change /veh RGS16 (11746705_a_at) / RFU VCAN (11755009_s_at) / Fold change /veh VCAN (11755009_s_at) / RFU RHOB (11743442_s_at) / Fold change /veh RHOB (11743442_s_at) / RFU RGS16 (11720943_a_at) / Fold change /veh RGS16 (11720943_a_at) / RFU RGS16 (11720944_at) / Fold change /veh RGS16 (11720944_at) / RFU, VPS4B / Fold change vs veh, VPS4B / RFU, CREB1 / Fold change vs veh, CREB1 / RFU, DNAJC13 / Fold change vs veh, DNAJC13 / RFU, GNAQ / Fold change vs veh, GNAQ / RFU, CDK5R1 / Fold change vs veh, CDK5R1 / RFU, ZRANB3 / Fold change vs veh, ZRANB3 / RFU, CUL4A / Fold change vs veh, CUL4A / RFU, CCNY / Fold change vs veh, CCNY / RFU, UFL1 / Fold change vs veh, UFL1 / RFU, COG3 / Fold change vs veh, COG3 / RFU, DIAPH2 / Fold change vs veh, DIAPH2 / RFU, SKA2 / Fold change vs veh, SKA2 / RFU, AFF3 / Fold change vs veh, AFF3 / RFU, LMF1 / Fold change vs veh, LMF1 / RFU, IPO11 / Fold change vs veh, IPO11 / RFU, DFFB / Fold change vs veh, DFFB / RFU, FOXP1 / Fold change vs veh, FOXP1 / RFU, CARD8 / Fold change vs veh, CARD8 / RFU, STRN3 / Fold change vs veh, STRN3 / RFU, ADK / Fold change vs veh, ADK / RFU, RASSF2 / Fold change vs veh, RASSF2 / RFU, WIPF1 / Fold change vs veh, WIPF1 / RFU, LARP1B / Fold change vs veh, LARP1B / RFU, RASA1 / Fold change vs veh, RASA1 / RFU, RB1 / Fold change vs veh, RB1 / RFU, PPFIA1 / Fold change vs veh, PPFIA1 / RFU, MAT2A / Fold change vs veh, MAT2A / RFU, CCT5 / Fold change vs veh, CCT5 / RFU, WDR92 / Fold change vs veh, WDR92 / RFU, CUX1 / Fold change vs veh, CUX1 / RFU, TTC7A / Fold change vs veh, TTC7A / RFU, TMEM135 / Fold change vs veh, TMEM135 / RFU, DEPTOR / Fold change vs veh, DEPTOR / RFU, CPM / Fold change vs veh, CPM / RFU, DNAJB6 / Fold change vs veh, DNAJB6 / RFU, CACNA2D3 / Fold change vs veh, CACNA2D3 / RFU, DTX4 / Fold change vs veh, DTX4 / RFU, TFCP2 / Fold change vs veh, TFCP2 / RFU, GMCL1 /// GMCL1P1 / Fold change vs veh, GMCL1 /// GMCL1P1 / RFU, AEBP2 / Fold change vs veh, AEBP2 / RFU, SNHG1 /// SNORD22 /// SNORD25 /// SNORD26 /// SNORD27 /// SNORD28 /// SNORD29 /// SNORD31 / Fold change vs veh, SNHG1 /// SNORD22 /// SNORD25 /// SNORD26 /// SNORD27 /// SNORD28 /// SNORD29 /// SNORD31 / Fold change (Aza/veh), C12orf56 (ProbeSet 11735607_a_at) / Fold change (ACY-1035/veh), C12orf56 (ProbeSet 11735607_a_at) / Fold change (Aza/veh), FGFR1OP (ProbeSet 11751329_s_at) / Fold change (ACY-1035/veh), FGFR1OP (ProbeSet 11751329_s_at) / Fold change (Aza/veh), VPS36 (ProbeSet 11739960_a_at) / Fold change (ACY-1035/veh), VPS36 (ProbeSet 11739960_a_at) / RFU SYPL1 (11715823_x_at) / Fold change /veh SYPL1 (11715823_x_at) / RFU IGFBP7 (11715501_s_at) / Fold change /veh IGFBP7 (11715501_s_at) / RFU REEP3 (11722064_at) / Fold change /veh REEP3 (11722064_at) / RFU IGLL1 (11728026_x_at) / Fold change /veh IGLL1 (11728026_x_at): dose or concentration left out as unconfirmed. The conditions noted are these: gene VPS36; Azacitidine vs DMSO; LIST F.

Take `Nc1ncn([C@@H]2O[C@H](CO)[C@@H](O)[C@H]2O)c(=O)n1` [azacitidine]: the “Fold change (Aza/veh), VPS36 (ProbeSet 11739960_a_at)” value is 1.14.
